According to patent publication EP2435433B1, “(DIHYDRO)IMIDAZOISO[5,1-A]QUINOLINES AS FSH RECEPTOR AGONISTS FOR THE TREATMENT OF FERTILITY DISORDERS” (Merck Sharp & Dohme B.V., priority 2009, dated 2010):
Where two headings read alike, the source gives them in different places.

Biological target: T1, human FSH receptor (Homo sapiens, UniProt P23945)
T1 construct: expressed in transfected cells; host or cells: Chinese Hamster Ovary (CHO) cells, stably transfected, cotransfected with CRE/promotor-firefly luciferase reporter
T1 sequence (P23945 18-695): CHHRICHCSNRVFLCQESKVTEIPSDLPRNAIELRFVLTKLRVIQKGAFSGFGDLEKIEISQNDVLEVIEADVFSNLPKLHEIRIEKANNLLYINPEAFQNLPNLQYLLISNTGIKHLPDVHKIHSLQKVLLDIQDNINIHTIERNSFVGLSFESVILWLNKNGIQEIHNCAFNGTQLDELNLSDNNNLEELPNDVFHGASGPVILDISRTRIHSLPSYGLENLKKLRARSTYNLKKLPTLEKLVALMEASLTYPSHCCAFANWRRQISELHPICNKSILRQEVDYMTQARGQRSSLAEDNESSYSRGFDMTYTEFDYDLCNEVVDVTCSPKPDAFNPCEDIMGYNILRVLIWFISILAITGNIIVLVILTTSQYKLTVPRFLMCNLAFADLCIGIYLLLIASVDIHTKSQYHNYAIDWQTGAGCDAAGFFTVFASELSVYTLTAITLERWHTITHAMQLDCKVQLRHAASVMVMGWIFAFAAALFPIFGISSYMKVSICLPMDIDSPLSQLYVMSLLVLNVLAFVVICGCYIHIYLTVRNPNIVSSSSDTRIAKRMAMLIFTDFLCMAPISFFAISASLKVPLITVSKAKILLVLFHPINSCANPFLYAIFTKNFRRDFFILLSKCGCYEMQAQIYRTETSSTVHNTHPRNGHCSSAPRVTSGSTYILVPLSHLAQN
Test: Agonistic activity of compounds at the human FSH receptor expressed in CHO cells, CRE/luciferase reporter (hFSHRago (CHO luc))
Assay type: cell-based
Text: The term EC50 means the concentration of the test compound that elicits half-maximal (50 %) stimulation compared to the compound's maximally attainable effect. The values can be determined e.g. in a cell line transfected with a FSH receptor gene and cotransfected with a cAMP responsive element/promoter directing the expression of a reporter gene. Values can be determined using a software program such as MathIQ (version 2.0, ID Business Solutions Limited).
Agonistic activity of the compounds at the human FSH receptor was determined in Chinese Hamster Ovary (CHO) cells stably transfected with the human FSH receptor and cotransfected with a cAMP responsive element (CRE)/promotor directing the expression of a firefly luciferase reporter gene. Binding of the compounds to the Gs protein-coupled FSH receptor will result in an increase of cAMP, which in turn will induce an increased transactivation of the luciferase reporter. Cells (7,500 cells/well of a 384 well plate) were incubated in Dulbecco' minimal essential F12 modified medium (Invitrogen), supplemented with 1 µg/ml bovine insulin, 5 µg/ml human apo-transferrin, 80 U/ml penicillin G and 80 µg/ml streptomycin with the test compounds (concentration between 0.0316 nM and 10.0 µM) in duplicate in a humidified atmosphere (95%) at 5-7% CO2 and 37°C. The final concentration of DMSO was 1%. After 4 hours of incubation, plates were allowed to adjust to room temperature for 1 hour. Then, Luclite (PerkinElmer) solution was added to the wells and cells were allowed to lyse for at least 1 hour at room temperature. Subsequently, luciferase activity was measured in a luminescence counter. The signal is expressed as counts per second (cps). The EC50 (concentration of the test compound that elicits half-maximal (50 %) luciferase stimulation compared to the compound's maximally attainable effect) and efficacy values (maximal effect of the test compound as percentage of the maximal effect of recombinant human FSH) of the compounds were determined using the software program MathIQ (version 2.0, ID Business Solutions Limited). EC50 data are indicated at the synthesis examples.

[1] = CHO cells stably transfected with the human FSH receptor and CRE/firefly luciferase reporter, 4 hours of incubation, half-maximal stimulation relative to the compound's own maximal effect, read-out: hFSHRago (CHO luc) EC50

| Structure (SMILES) | EC50 [1] [nM] | EC50 [nM] |
| --- | --- | --- |
| COc1cc2c(cc1Br)-c1c(-c3cccs3)nc(C(=O)N(C)C(C)(C)C)n1CC2 [Example 1j, 9-Bromo-8-methoxy-1-thiophen-2-yl-5,6-dihydro-imidazo[5,1-a]isoquinoline-3-carboxylic acid tert-butyl-methyl-amide] | 36 |  |
| COc1cc2c(cc1-c1cccnc1)-c1c(-c3cccs3)nc(C(=O)N(C)C(C)(C)C)n1CC2 [Example 2a] |  | 1 |
| COc1cc2c(cc1-c1cccc(N3CCOCC3)n1)-c1c(-c3cccs3)nc(C(=O)N(C)C(C)(C)C)n1CC2 [Example 2d, 8-Methoxy-9-(6-morpholin-4-yl-pyridin-2-yl)-1-thiophen-2-yl-5,6-dihydro-imidazo[5,1-a]isoquinoline-3-carboxylic acid tert-butyl-methyl-amide] | 100 |  |
| COc1cc2c(cc1-c1ccccc1C#N)-c1c(-c3cccs3)nc(C(=O)N(C)C(C)(C)C)n1CC2 [Example 2j, 9-(2-Cyano-phenyl)-8-methoxy-1-thiophen-2-yl-5,6-dihydro-imidazo[5,1-a]isoquinoline-3-carboxylic acid tert-butyl-methyl-amide] | 5 |  |
| COc1cc2c(cc1-c1c(C)noc1C)-c1c(-c3cccs3)nc(C(=O)N(C)C(C)(C)C)n1CC2 [Example 2m, 9-(3,5-Dimethyl-isoxazol-4-yl)-8-methoxy-1-thiophen-2-yl-5,6-dihydro-imidazo[5,1-a]iso-quinoline-3-carboxylic acid tert-butyl-methyl-amide] | 9 |  |
| COc1cc2c(cc1-c1cccc(N3CCN(C(=O)OC(C)(C)C)CC3)c1)-c1c(-c3cccs3)nc(C(=O)N(C)C(C)(C)C)n1CC2 [Example 2o] | 14 |  |
| COc1ccccc1-c1cc2c(cc1OC)CCn1c(C(=O)N(C)C(C)(C)C)nc(-c3cccs3)c1-2 [Example 2q, 8-Methoxy-9-(2-methoxy-phenyl)-1-thiophen-2-yl-5,6-dihydro-imidazo [5,1-a]isoquinoline-3-carboxylic acid tert-butyl-methyl-amide] | 50 |  |
| C=Cc1cc2c(cc1OC)CCn1c(C(=O)N(C)C(C)(C)C)nc(-c3cccs3)c1-2 [Example 3b, 8-Methoxy-1-thiophen-2-yl-9-vinyl-5,6-dihydro-imidazo[5,1-a]isoquinoline-3-carboxylic acid tert-butyl-methyl-amide] | 28 |  |
| COc1cc2c(cc1C(=O)Nc1nncs1)-c1c(-c3cccs3)nc(C(=O)N(C)C(C)(C)C)n1CC2 [Example 3e, 8-Methoxy-1-thiophen-2-yl-5,6-dihydro-imidazo[5,1-a]isoquinoline-3,9-dicarboxylic acid 3-(tert-butyl-methyl-amide) 9-[1,3,4]thiadiazol-2-ylamide] | 3 |  |
| CCc1nnc(NC(=O)c2cc3c(cc2OC)CCn2c(C(=O)N(C)C(C)(C)C)nc(-c4cccs4)c2-3)s1 [Example 4, 8-Methoxy-1-thiophen-2-yl-5,6-dihydro-imidazo[5,1-a]isoquinoline-3,9-dicarboxylic acid 3-(tert-butyl-methyl-amide) 9-[(5-ethyl-[1,3,4]thiadiazol-2-yl)-amide]] | 58 |  |

Continued, in another order:

| EC50 [1] [nM] | Structure (SMILES) | EC50 [nM] |
| --- | --- | --- |
| 13 | COc1cc2c(cc1-c1ccccn1)-c1c(-c3cccs3)nc(C(=O)N(C)C(C)(C)C)n1CC2 [Example 2b, 8-Methoxy-9-pyridin-2-yl-1-thiophen-2-yl-5,6-dihydro-imidazo[5,1-a]isoquinoline-3-carboxylic acid tert-butyl-methyl-amide] |  |
| 3 | COc1cc2c(cc1-c1cccc(F)n1)-c1c(-c3cccs3)nc(C(=O)N(C)C(C)(C)C)n1CC2 [Example 2c, 9-(6-Fluoro-pyrjdin-2-yl)-8-methoxy-1-thiophen-2-yl-5,6-dihydro-imidazo[5,1-a]iso-quinoline-3-carboxylic acid tert-butyl-methyl-amide] |  |
| 65 | COc1cc2c(cc1-c1cccc(C(F)(F)F)c1)-c1c(-c3cccs3)nc(C(=O)N(C)C(C)(C)C)n1CC2 [Example 2e, 8-Methoxy-1-thiophen-2-yl-9-(3-trifluoromethyl-phenyl)-5,6-dihydro-imidazo[5,1-a]isoquinoline-3-carboxylic acid tert-butyl-methyl-amide] |  |
| 1 | COc1cc2c(cc1-c1cccc(NC(C)=O)c1)-c1c(-c3cccs3)nc(C(=O)N(C)C(C)(C)C)n1CC2 [Example 2f, 9-(3-Acetylamino-phenyl)-8-methoxy-1-thiophen-2-yl-5,6-dihydro-imidazo[5,1-a]iso-quinoline-3-carboxylic acid tert-butyl-methyl-amide] |  |
| 2 | COc1cc2c(cc1-c1cccc(-n3cccn3)c1)-c1c(-c3cccs3)nc(C(=O)N(C)C(C)(C)C)n1CC2 [Example 2g, 8-Methoxy-9-(3-pyrazol-1-yl-phenyl)-1-thiophen-2-yl-5,6-dihydro-imidazo[5,1-a]iso-quinoline-3-carboxylic acid tert-butyl-methyl-amide] |  |
| 2 | COc1cc2c(cc1-c1cccc(N3CCOCC3)c1)-c1c(-c3cccs3)nc(C(=O)N(C)C(C)(C)C)n1CC2 [Example 2h, 8-Methoxy-9-(3-morpholin-4-yl-phenyl)-1-thiophen-2-yl-5,6-dihydro-imidazo[5,1-a]iso-quinoline-3-carboxylic acid tert-butyl-methyl-amide] |  |
| 3 | COc1cc2c(cc1-c1cccc(F)c1)-c1c(-c3cccs3)nc(C(=O)N(C)C(C)(C)C)n1CC2 [Example 2i, 9-(3-Fluoro-phenyl)-8-methoxy-1-thiophen-2-yl-5,6-dihydro-imidazo[5,1-a]isoquinoline-3-carboxylic acid tert-butyl-methyl-amide] |  |
| 8 | COc1cc2c(cc1-c1cccc(N)c1)-c1c(-c3cccs3)nc(C(=O)N(C)C(C)(C)C)n1CC2 [Example 2k, 9-(3-Amino-phenyl)-8-methoxy-1-thiophen-2-yl-5,6-dihydro-imidazo[5,1-a]isoquinoline-3-carboxylic acid tert-butyl-methyl-amide] |  |
| 9 | COc1cc2c(cc1-c1cccc(N(C)C)c1)-c1c(-c3cccs3)nc(C(=O)N(C)C(C)(C)C)n1CC2 [Example 2l, 9-(3-Dimethylamino-phenyl)-8-methoxy-1-thiophen-2-yl-5,6-dihydro-imidazo[5,1-a]iso-quinoline-3-carboxylic acid tert-butyl-methyl-amide] |  |
| 11 | COc1cc2c(cc1-c1cccc(C(=O)N(C)C)c1)-c1c(-c3cccs3)nc(C(=O)N(C)C(C)(C)C)n1CC2 [Example 2n, 9-(3-Dimethylcarbamoyl-phenyl)-8-methoxy-1-thiophen-2-yl-5,6-dihydro-imidazo[5,1-a]iso-quinoline-3-carboxylic acid tert-butyl-methyl-amide] |  |
| 15 | COc1cc2c(cc1-c1cccc(S(C)(=O)=O)c1)-c1c(-c3cccs3)nc(C(=O)N(C)C(C)(C)C)n1CC2 [Example 2p, 9-(3-Methanesulfonyl-phenyl)-8-methoxy-1-thiophen-2-yl-5,6-dihydro-imidazo[5,1-a]iso-quinoline-3-carboxylic acid tert-butyl-methyl-amide] |  |
| 167 | COc1cc2c(cc1-c1ccc3c(c1)OCO3)-c1c(-c3cccs3)nc(C(=O)N(C)C(C)(C)C)n1CC2 [Example 2r, 9-Benzo[1,3]dioxol-5-yl-8-methoxy-1-thiophen-2-yl-5,6-dihydro-imidazo[5,1-a]iso-quinoline-3-carboxylic acid tert-butyl-methyl-amide] |  |
